We go through eight compounds from PubChem BioAssay (NCI).

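A five-concentration, 48-hour dose response in 96-well plates underlies each endpoint, interpolated linearly between surrounding concentrations. GI50 is the concentration that inhibits growth by half. TGI: total growth inhibition.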

Test in all cases: growth of human tumour cells (NCI), 48 h
Assay [1] concerns A549 NSCLC.
Assay [2] relates to CCRF-CEM leukemia.
For assay [3], the system named is UACC-257 melanoma.
Assay [4] has as its system CAKI-1 renal.
The subject of assay [5] is ACHN renal.
The subject of assay [6] is RXF 393 renal.
Assay [7] deals with SW-620 colon.
Assay [8] deals with HCC-2998 colon.
Assay [9] has as its system M14 melanoma.
Assay [10] relates to PC-3 prostate.

With `C/C=C(\C)C(=O)N[C@H]1C(O)C[C@]2(C)C3CC[C@@]4(C)C(CC[C@@H]4C(C)N(C)C)C3CCC2C1O` (stereo not given in full), the GI50 in assay [1] was 9.54 µM; in assay [2], 7.76 µM; in assay [3], 3.22 µM; in assay [4] it was 9.42 µM; in [5] it was 10.3 µM; in assay [6], 7.53 µM. For the same compound, the GI50 in assay [7] is 2.31 µM; in [8] it was 4.16 µM; in assay [9], 2.02 µM; in assay [10] it was 8.72 µM. Besides, the TGI in [1] came to 33.6 µM; in [2] it was 75.8 µM; in assay [3], 9.75 µM; in assay [4] it was 38.8 µM; in assay [5], 43.4 µM; in [6] it was 23.2 µM. Moreover, the TGI was 6.06 µM in assay [7], 9.21 µM in assay [8], 3.88 µM in [9] and greater than 52.6 µM in assay [10].

On to `CCc1nc(N)nc(N)c1-c1ccc(Cl)c(N=CN(C)C)c1`, for which the TGI in assay [1] was greater than 100 µM; in [2], 97.6 µM; in assay [3], greater than 100 µM; in [4] it was greater than 100 µM; in [5], greater than 100 µM; in [6], greater than 100 µM. For the same compound, the TGI in [7], in assay [8], in [9] and in assay [10] was greater than 100 µM throughout.

On to `CN(C)CCN1C(=O)c2cccc3cccc(c23)C1=O`, for which the GI50 in assay [1] was 12.9 µM; in assay [2], 14.5 µM; in assay [3], greater than 25 µM; in [4] it was 5.13 µM; in assay [5] it was 8.29 µM; in [6], 13.4 µM. Besides, the GI50 is 11.7 µM in assay [7], greater than 25 µM in assay [8], greater than 25 µM in [9] and 18.7 µM in assay [10]. The TGI in assay [1] is greater than 25 µM; in assay [2], greater than 25 µM; in [3], greater than 25 µM; in assay [4], 17.5 µM; in assay [5] it was greater than 25 µM; in assay [6], greater than 25 µM. Further, the TGI in assay [7], in assay [8], in [9] and in assay [10] was greater than 25 µM in each case.

Take `Cn1c(=O)c(Oc2ccc(F)cc2F)cc2cnc(NCCS(C)(=O)=O)nc21`: the GI50 in [1], in assay [2], in assay [3], in [4], in assay [5] and in [6] was greater than 25 µM throughout. The GI50 in assay [7], in assay [8], in assay [9] and in assay [10] was greater than 25 µM in each case. For the same compound, the TGI in [1], in assay [2], in [3], in assay [4], in assay [5] and in assay [6] was greater than 25 µM each time. The TGI in [7], in assay [8], in assay [9] and in assay [10] was greater than 25 µM throughout.

Regarding `O=C(Nc1ccc(I)cc1F)c1cc(Cl)ccc1O`, the GI50 in assay [1] is 2.73 µM; in assay [2] it was 1.73 µM; in assay [3], 0.467 µM; in assay [4], 0.305 µM; in assay [5], 0.487 µM; in [6] it was 0.507 µM. The GI50 in assay [7] is 0.737 µM; in [8] it was 3.14 µM; in assay [9], 0.407 µM; in assay [10] it was 1.91 µM. For the same compound, the TGI in assay [1] was greater than 100 µM; in [2], 10 µM; in [3] it was 3.99 µM; in assay [4] it was 2.34 µM; in [5] it was 10.6 µM; in [6], 3.07 µM. For the same compound, the TGI in [7] is 12.7 µM; in [8] it was 10.1 µM; in assay [9], 4.72 µM; in assay [10], 6.5 µM.

For `CC(C)COC(=O)c1ccc2[nH]c(O)c(C=Nc3ccc(S(N)(=O)=O)cc3)c2c1`, the GI50 in assay [1] is 1.74 µM; in [2], 0.823 µM; in assay [3], 3.99 µM; in assay [4], 2.86 µM; in assay [5] it was 0.885 µM; in assay [6] it was 0.747 µM. The GI50 in assay [7] was 0.671 µM; in [8], 3.27 µM; in assay [9], 1.25 µM; in [10], 1.6 µM. The TGI in [1] was 5.88 µM; in assay [2] it was 15.3 µM; in assay [3], 9.44 µM; in [4], 16.7 µM; in [5], 5.8 µM; in assay [6], 1.61 µM. Moreover, the TGI in assay [7] was found to be 3.83 µM; in [8], 9.03 µM; in assay [9], 4.8 µM; in assay [10], 6.54 µM.

Turning to `COc1ccc2nc(NC(=O)c3cccnc3Nc3cc(OC)c(OC)c(OC)c3)sc2c1`, the GI50 in [1] was 7.38 µM; in assay [2], 20.1 µM; in assay [3], 14.6 µM; in assay [4] it was 16.4 µM; in assay [5], 6.47 µM; in assay [6] it was 2.6 µM. In addition, the GI50 in assay [7] is 11.8 µM; in assay [8] it was 17 µM; in assay [9], 10.5 µM; in assay [10], 6.67 µM. In addition, the TGI was 22 µM in assay [1]; greater than 100 µM in [2]; 29.6 µM in assay [3]; 42.5 µM in assay [4]; 20.6 µM in assay [5]; 8.85 µM in [6]. The TGI was determined as 24.5 µM in [7], 39.4 µM in assay [8], 29.6 µM in assay [9] and 23.2 µM in [10].

For `Cc1cccc(Nc2cnc(N)nc2N)c1`, the TGI in assay [1], in assay [2], in [3], in [4], in [5] and in assay [6] was greater than 100 µM throughout. The TGI in assay [7], in assay [8], in assay [9] and in [10] was greater than 100 µM in each case.
